The record followed here is ChEMBL document CHEMBL2163324, “Function of the D-alanine:D-alanine ligase lid loop: a molecular modeling and bioactivity study” (J Med Chem, 2012).

Experiment [1] is described as follows: Inhibition of Escherichia coli DdlB after 20 mins by malachite green staining-based colorimetric assay.
Experiment [2] deals with Escherichia coli. Description: Inhibition of Escherichia coli DdlB at 500 uM after 20 mins by malachite green staining-based colorimetric assay.
The nature of experiment [3]: Competitive inhibition of Escherichia coli DdlB after 20 mins by malachite green staining-based colorimetric assay in presence of ATP.
In experiment [4] the test system is Escherichia coli. The experiment can be described thus: Inhibition of Escherichia coli DdlB at 250 uM after 20 mins by malachite green staining-based colorimetric assay.

Molecules are shown by their SMILES.

One may read the IC50 as the concentration at which inhibition is half-maximal. The inhibition is the share of the control response that was lost under treatment. Low readings indicate a weak effect, high ones a strong effect. On to `O=C(N/N=C/c1cc(=O)[nH]c(O)n1)c1ccncc1`, for which the IC50 result in experiment [1] is “ND(Insoluble)”. Moreover, the inhibition in experiment [2] was determined as 62%.
Taken in the same sequence, the figures for `N/C(=N\OC(=O)Nc1ccc(Cl)cc1)c1cnccn1` were “ND(Insoluble)” and 77%.
As to `Cc1cc(C(=N)NOC(=O)Nc2ccc(Cl)cc2)no1`, the IC50 in experiment [1] (read-out: IC50) was found to be 656 µM. Also, in experiment [2], the inhibition was found to be 61%.
Usually Ki stands for the dissociation constant of the complex between target and ligand, obtained from inhibition or displacement. In the case of `N/C(=N\OC(=O)Nc1cccc(Cl)c1)c1ccno1`, the Ki in experiment [3] is 326 µM. Further, the IC50 in experiment [1] (read-out: IC50) came out at 378 µM. The compound also showed an inhibition in experiment [2] of 48%.
On to `O=C1NC(=O)C(=C(O)Nc2ccccc2)C(=O)N1`, for which the IC50 in experiment [1] (read-out: IC50) amounted to 611 µM. Besides, in experiment [2], the inhibition came out at 63%.
Consider `COc1ccc2c(C)nc(Nc3nc(O)cc(O)n3)nc2c1`, for which the IC50 result in experiment [1] is reported as “ND(Insoluble)”. This compound also displayed an inhibition in experiment [4] of 70%.
Consider `N/C(=N/OC(=O)c1ccc2nsnc2c1)c1ncon1`, for which, in experiment [1], the IC50 result is “ND(Insoluble)”. This compound showed an inhibition in experiment [2] of 78%.
